In patent US20060240535A1, “Carbonyl reductase from lactococcus lactis” (GEORGIA TECH RESEARCH CORPORATION, priority 2004, published 2006):

Columns and labels:
[1] = system: carbonyl reductase from Lactococcus lactis; experiment: CRLL activity assay (decrease of NADPH absorption); substrate table of the isolated carbonyl reductase; type: biochemical; details: Substrate (20 mM); for spec. Act. (U/mg): activity per protein (0.37, 5.5 or 6.6 mg/mL)
Description: The construct crll-pkk223-3 as well as crll-his-pkk223-3 were both transformed separately into the E. coli host strain HB101 for expression.

[2] = target: T1, carbonyl reductase from Lactococcus lactis (LL-CR) (Lactococcus lactis, UniProt Q9CJ60); experiment: Oxidation of secondary alcohols to ketones by LL-CR (enantiospecificity); type: biochemical
[3] = target: T1, carbonyl reductase from Lactococcus lactis (LL-CR); experiment: Purified CRLL activity in aqueous-organic tunable solvents (OATS); type: biochemical
Procedure: As LL-CR requires organic buffers for stability, such as HEPES or triethanolamine, runs were conducted in partially organic systems using a buffer system of 200 mM NH4CHO3 and 50 mM HEPES at pH 7.0.

[4] = target: T1, carbonyl reductase from Lactococcus lactis (LL-CR); experiment: Enzyme characterisation of purified LL-CR (KM, vmax, kcat, pH and T optima); type: biochemical
[5] = substrate: CC(=O)c1ccccc1; experiment: as above; type: biochemical, Lactococcus lactis; details: other: pH 7.0 and 30° C.

Molecule	Activity (U/mL) [1]	spec. Act. (U/mg) [1]	also measured
CCOC(=O)CC(C)=O [ethyl acetoacetate]	7.07 U/mL	19.11 U/mg	–
OCCOCCO [diethyleneglycol]	0.38 U/mL	1.027 U/mg	–
CCC=O [propionaldehyde]	69 U/mL	10.45 U/mg	–
CCOC(=O)C(=O)c1ccccc1 [ethyl benzoylformate]	11.25 U/mL	1.705 U/mg	–
CC(=O)C(C)C [3-methyl-2-butanone]	12.06 U/mL	32.59 U/mg	–
CCCCC(C)=O [2-hexanone]	1.28 U/mL	3.459 U/mg	–
CC(=O)COc1ccccc1 [Phenoxy-2-propanone]	10.61 U/mL	28.68 U/mg	–
COC(=O)C(=O)c1ccccc1 [Methyl benzoylformate]	3.86 U/mL	0.5848 U/mg	–
C[C@@H](O)c1ccccc1 [(R)-1-phenyl-1-ethanol]	–	–	oxidation of secondary alcohol to the respective ketone [2]: can oxidize
CCCC[C@@H](C)O [(R)-2-hexanol]	–	–	oxidation of secondary alcohol to the respective ketone [2]: can oxidize
O=Cc1ccccc1 [benzaldehyde]	8.3 U/mL	1.258 U/mg	–
CC(=O)CC(C)C [4-methyl-2-pentanone]	21.7 U/mL	3.288 U/mg	–
O=C1CCCCC1 [cyclohexanone]	49 U/mL	7.424 U/mg	–
CCOC(=O)C(C)=O [ethyl pyruvate]	16.32 U/mL	2.473 U/mg	–
CC(=O)C(C)(C)C [pinacolone]	22.5 U/mL	3.409 U/mg	–
CCC(=O)c1ccccc1 [propiophenone]	2.2 U/mL	0.4 U/mg	–
O=C(O)C(=O)c1ccccc1 [benzoylformate]	0 U/mL	0 U/mg	–
CC(=O)CO [hydroxyacetone]	0.77 U/mL	2.081 U/mg	–
CCCC(=O)CC(=O)OCC [ethyl 3-oxohexanoate]	9.64 U/mL	26.05 U/mg	–

Molecule	Activity (U/mL) [1]	spec. Act. (U/mg) [1]	also measured
CC(=O)CCC(C)=O [acetonylacetone]	57.88 U/mL	8.77 U/mg	–
CCOCCO [ethoxyethanol]	0.0128 U/mL	0.03459 U/mg	–
CCCCCC=O [hexylaldehyde]	45.82 U/mL	6.942 U/mg	–
CCOC(=O)CC(=O)c1ccccc1 [ethyl benzoylacetate]	4.98 U/mL	13.46 U/mg	–
CC(O)CO (centres unmarked) [1,2-propanediol]	0.025 U/mL	0.06757 U/mg	–
t-butylcyclohexanone	0 U/mL	0 U/mg	–
CC1CC(=O)CC(C)(C)C1 (centres unmarked) [3,3,5-trimethyl-CHone]	0.24 U/mL	0.6486 U/mg	–
CCCCCCCC=O [octylaldehyde]	10.93 U/mL	1.656 U/mg	–
O=C1CCCC2CCCCC12 (centres unmarked) [1-decalone]	5.29 U/mL	14.3 U/mg	–
COC(=O)CC(C)=O [Methyl acetoacetate]	36.7 U/mL	5.561 U/mg	–
O=C1CCc2ccccc21 [1-indanone]	–	0 U/mg	–
CC(C)O [isopropanol]	–	–	specific activity of LL-CR on isopropanol ([3]; regeneration substrate, extends beyond 50% solvent content): 2-4 U/mg protein
CC(C)=O [acetone]	8.36 U/mL	22.59 U/mg	–
CC(=O)c1ccccc1 [acetophenone]	53 U/mL	8.03 U/mg	–
CCCC=O [butyraldehyde]	12.7 U/mL	34.32 U/mg	–
CC(=O)CC(C)=O [2,4-pentane-dione]	90.77 U/mL	13.75 U/mg	–
CC1(C)COC(=O)C1=O [ketopantolactone]	9.49 U/mL	25.65 U/mg	–
tetralone	3.2 U/mL	0.4848 U/mg	–
carbonyl reductase from Lactococcus lactis (LL-CR) (Lactococcus lactis subsp. lactis Il1403) (protein) MKTLITGENKGIGFALAQNLGHRGYEVLVGARNETRGQEAVEKLKAEGITAKFVKVDLDDLNQLTSLSALTDIDLLINNAGISGNIHSDKGHLDMEKSAFDYSTTDLEETIKTNFLGTHAVIKELLPHSLTENAKIINITVPVSQEYWMPLAYVTSKAAQNAMTFAFGHQFKKDKSKKQIFAVMPGAVATDLNGAKVGDSPFVKSPEETAQMISKFIFDDKNHNAQIINFDGTIYDNYEPGLRNKVIKDVAKNGLKRKFKK	–	–	organic solvent content at which enzyme is active ([3]; 200 mM NH4HCO3/50 mM HEPES, pH 7.0, 30° C.): up to 50%; organic solvent content at which stable ([3]; acetonitrile, dioxane, or tetrahydrofuran): below 60%; T optimum [4]: 40 °C; pH optimum [4]: 6.5; calculated kcat ([4]; pH 7.0 and 30° C.): 24 s⁻¹; vmax ([4]; pH 7.0 and 30° C.): 80 U/mg pure protein; Km [5]: 500 µM
